Data reported in patent US9096560B2, “5-heterocyclylalkyl-3-hydroxy-2-phenylcyclopent-2-enones as herbicides” (Syngenta Limited, priority 2008, dated 2015).

Tests used:
Assay type in all cases: in vivo
Lolium perenne (LOLPE) [1] = test: Example B pre-emergence herbicidal test, LOLPE; conditions: Lolium perenne, 312 h, rate 250 g/ha, evaluated after 13 days, 100=total damage to plant, 0=no damage to plant
Procedure, shortened: (§1)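 Pre-emergence spray one day after sowing; vehicle acetone/water (50:50), 0.5% Tween 20. Percent damage (0 = no effect, 100 = plant killed) recorded 13 days later.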

[2] = test system: Alopecurus myosuroides (ALOMY); test: Example B pre-emergence herbicidal test, ALOMY; conditions: Alopecurus myosuroides, 312 h, rate 250 g/ha, evaluated after 13 days, 100=total damage to plant, 0=no damage to plant
Procedure, shortened: as §1

[3] = test system: Echinochloa crus-galli (ECHCG); test: Example B pre-emergence herbicidal test, ECHCG; conditions: Echinochloa crus-galli, 312 h, rate 250 g/ha, evaluated after 13 days, 100=total damage to plant, 0=no damage to plant
Procedure, shortened: as §1

Avena fatua (AVEFA) [4] = test: Example B pre-emergence herbicidal test, AVEFA; conditions: Avena fatua, 312 h, rate 250 g/ha, evaluated after 13 days, 100=total damage to plant, 0=no damage to plant
Procedure, shortened: as §1

Lolium perenne (LOLPE) [5] = test: Example B post-emergence herbicidal test, LOLPE; conditions: Lolium perenne, 312 h, rate 250 g/ha, evaluated after 13 days, scale 0-100, read-out: Post-emergence activity LOLPE (100=total damage to plant; 0=no damage to plant)
Procedure, shortened: (§2)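 Plants grown from seed in standard soil for 8 days in a glasshouse (24/16 °C day/night, 14 h light, 65% humidity), then sprayed with an aqueous solution from the active ingredient formulated in acetone/water (50:50) with 0.5% Tween 20. Damage scored after 13 days, 0 (none) to 100 (total).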

[6] = test system: Alopecurus myosuroides (ALOMY); test: Example B post-emergence herbicidal test, ALOMY; conditions: Alopecurus myosuroides, 312 h, rate 250 g/ha, evaluated after 13 days, scale 0-100, read-out: Post-emergence activity ALOMY (100=total damage to plant; 0=no damage to plant)
Procedure, shortened: as §2

[7] = test system: Echinochloa crus-galli (ECHCG); test: Example B post-emergence herbicidal test, ECHCG; conditions: Echinochloa crus-galli, 312 h, rate 250 g/ha, evaluated after 13 days, scale 0-100, read-out: Post-emergence activity ECHCG (100=total damage to plant; 0=no damage to plant)
Procedure, shortened: as §2

Avena fatua (AVEFA) [8] = test: Example B post-emergence herbicidal test, AVEFA; conditions: Avena fatua, 312 h, rate 250 g/ha, evaluated after 13 days, scale 0-100, read-out: Post-emergence activity AVEFA (100=total damage to plant; 0=no damage to plant)
Procedure, shortened: as §2

[9] = test system: Winter Wheat variety 'Hereward'; test: Example C crop damage test on Winter Wheat, post-emergence, no safener; conditions: Triticum aestivum, 312 h, rate 250 g/ha, evaluated after 13 days, read-out: Winter Wheat (Hereward) damage (100=total damage to plant; 0=no damage to plant)
Procedure: Seeds of the Winter Wheat variety ‘Hereward’ were sown in standard soil in pots. After 8 days cultivation under controlled conditions in a glasshouse (at 24/16° C., day/night; 14 hours light; 65% humidity), the plants were sprayed with an aqueous spray solution derived from the formulation of the technical active ingredient in acetone/water (50:50) solution containing 0.5% Tween 20 (polyoxyethelyene sorbitan monolaurate, CAS RN 9005-64-5). The test plants were then grown in a glasshouse under controlled conditions in a glasshouse (at 24/16° C., day/night; 14 hours light; 65% humidity) and watered twice daily. After 13 days for pre and post-emergence, the test was evaluated (100=total damage to plant; 0=no damage to plant).

[10] = test system: Winter Wheat variety 'Hereward' seed treated with cloquintocet mexyl; test: Example C crop damage test on Winter Wheat seed treated with safener cloquintocet mexyl, post-emergence; conditions: rate 250 g/ha, seed treated with cloquintocet mexyl 0.5 grams per kilogram of dry seed, evaluated after 13 days
Procedure: Seeds of the Winter Wheat variety ‘Hereward’ were seed treated with a wettable powder formulation of the cereal herbicide safener, cloquintocet mexyl, at a rate of 0.5 grams per kilogram of dry seed prior to the initiation of glasshouse testing. One seed was sown per 1.5 inch plastic pot into a sandy loam soil at a depth of 1 cm, 8 days prior to application of the test compounds and was watered and grown under controlled conditions in a glasshouse (at 24/16° C., day/night; 14 hours light; 65% humidity). The plants were sprayed Post-emergence with an aqueous spray solution derived from the formulation of the technical active ingredient in acetone/water (50:50) solution containing 0.5% Tween 20 (polyoxyethelyene sorbitan monolaurate, CAS RN 9005-64-5). The test plants were then grown in a glasshouse under controlled conditions in a glasshouse (at 24/16° C., day/night; 14 hours light; 65% humidity) and watered twice daily. After 13 days for pre and post-emergence, the test was evaluated (100=total damage to plant; 0=no damage to plant).

Cc1cc(C)c(C2=C(OC(=O)C(C)(C)C)CC(CC3CCOC3)C2=O)c(C)c1 (stereo not shown) [Compound P7]
pest or weed control at 250 g/ha (Lolium perenne (LOLPE) [1]): 100%
pest or weed control at 250 g/ha [2]: 100%
pest or weed control at 250 g/ha [3]: 100%
pest or weed control at 250 g/ha (Avena fatua (AVEFA) [4]): 90%
pest or weed control at 250 g/ha (Lolium perenne (LOLPE) [5]): 100%
pest or weed control at 250 g/ha [6]: 100%
pest or weed control at 250 g/ha [7]: 90%
pest or weed control at 250 g/ha (Avena fatua (AVEFA) [8]): 80%
crop damage to winter wheat at 250 g/ha [9]: 70%
Winter Wheat (Hereward) + cloquintocet mexyl damage (100=total damage to plant; 0=no damage to plant) [10]: 0

Cc1cc(C)c(C2=C(OC(=O)C(C)(C)C)C/C(=C\C3CCOCC3)C2=O)c(C)c1 [Compound P11]
pest or weed control at 250 g/ha (Lolium perenne (LOLPE) [1]): 100%
pest or weed control at 250 g/ha [2]: 100%
pest or weed control at 250 g/ha [3]: 100%
pest or weed control at 250 g/ha (Avena fatua (AVEFA) [4]): 100%
pest or weed control at 250 g/ha (Lolium perenne (LOLPE) [5]): 100%
pest or weed control at 250 g/ha [6]: 90%
pest or weed control at 250 g/ha [7]: 100%
pest or weed control at 250 g/ha (Avena fatua (AVEFA) [8]): 90%
crop damage to winter wheat at 250 g/ha [9]: 80%
Winter Wheat (Hereward) + cloquintocet mexyl damage (100=total damage to plant; 0=no damage to plant) [10]: 70

Cc1cc(C)c(C2=C(OC(=O)C(C)C)CC(CC3CCOC3)C2=O)c(C)c1 (stereo not shown) [Compound P13]
pest or weed control at 250 g/ha (Lolium perenne (LOLPE) [1]): 100%
pest or weed control at 250 g/ha [2]: 100%
pest or weed control at 250 g/ha [3]: 100%
pest or weed control at 250 g/ha (Avena fatua (AVEFA) [4]): 90%
pest or weed control at 250 g/ha (Lolium perenne (LOLPE) [5]): 100%
pest or weed control at 250 g/ha [6]: 90%
pest or weed control at 250 g/ha [7]: 100%
pest or weed control at 250 g/ha (Avena fatua (AVEFA) [8]): 90%
crop damage to winter wheat at 250 g/ha [9]: 70%
Winter Wheat (Hereward) + cloquintocet mexyl damage (100=total damage to plant; 0=no damage to plant) [10]: 10

CCCCCCC(=O)OC1=C(c2c(C)cc(C)cc2C)C(=O)C(CC2CCOC2)C1 (stereo not shown) [Compound P16]
pest or weed control at 250 g/ha (Lolium perenne (LOLPE) [1]): 100%
pest or weed control at 250 g/ha [2]: 100%
pest or weed control at 250 g/ha [3]: 100%
pest or weed control at 250 g/ha (Avena fatua (AVEFA) [4]): 90%
pest or weed control at 250 g/ha (Lolium perenne (LOLPE) [5]): 100%
pest or weed control at 250 g/ha [6]: 100%
pest or weed control at 250 g/ha [7]: 100%
pest or weed control at 250 g/ha (Avena fatua (AVEFA) [8]): 100%
crop damage to winter wheat at 250 g/ha [9]: 70%
Winter Wheat (Hereward) + cloquintocet mexyl damage (100=total damage to plant; 0=no damage to plant) [10]: 0

Cc1cc(C)c(C2=C(OC(=O)c3ccccc3)CC(CC3CCOC3)C2=O)c(C)c1 (stereo not shown) [Compound P17]
pest or weed control at 250 g/ha (Lolium perenne (LOLPE) [1]): 100%
pest or weed control at 250 g/ha [2]: 100%
pest or weed control at 250 g/ha [3]: 90%
pest or weed control at 250 g/ha (Avena fatua (AVEFA) [4]): 90%
pest or weed control at 250 g/ha (Lolium perenne (LOLPE) [5]): 100%
pest or weed control at 250 g/ha [6]: 100%
pest or weed control at 250 g/ha [7]: 100%
pest or weed control at 250 g/ha (Avena fatua (AVEFA) [8]): 90%
crop damage to winter wheat at 250 g/ha [9]: 70%
Winter Wheat (Hereward) + cloquintocet mexyl damage (100=total damage to plant; 0=no damage to plant) [10]: 0

CCCOC(=O)OC1=C(c2c(C)cc(C)cc2C)C(=O)C(CC2CCOC2)C1 (stereo not shown) [Compound P20]
pest or weed control at 250 g/ha (Lolium perenne (LOLPE) [1]): 100%
pest or weed control at 250 g/ha [2]: 100%
pest or weed control at 250 g/ha [3]: 80%
pest or weed control at 250 g/ha (Avena fatua (AVEFA) [4]): 90%
pest or weed control at 250 g/ha (Lolium perenne (LOLPE) [5]): 100%
pest or weed control at 250 g/ha [6]: 100%
pest or weed control at 250 g/ha [7]: 100%
pest or weed control at 250 g/ha (Avena fatua (AVEFA) [8]): 90%
crop damage to winter wheat at 250 g/ha [9]: 40%
Winter Wheat (Hereward) + cloquintocet mexyl damage (100=total damage to plant; 0=no damage to plant) [10]: 0

Cc1cc(C)c(C2C(=O)CC(CC3CCN(C(=O)C(F)(F)F)C3)C2=O)c(C)c1 (stereo not shown) [Compound T162]
pest or weed control at 250 g/ha (Lolium perenne (LOLPE) [1]): 70%
pest or weed control at 250 g/ha [2]: 40%
pest or weed control at 250 g/ha [3]: 50%
pest or weed control at 250 g/ha (Avena fatua (AVEFA) [4]): 50%
pest or weed control at 250 g/ha (Lolium perenne (LOLPE) [5]): 90%
pest or weed control at 250 g/ha [6]: 60%
pest or weed control at 250 g/ha [7]: 70%
pest or weed control at 250 g/ha (Avena fatua (AVEFA) [8]): 80%

Cc1cc(C)c(C2C(=O)CC(CC3CCN(C(=O)C(F)(F)F)CC3)C2=O)c(C)c1 (stereo not shown) [Compound T163]
pest or weed control at 250 g/ha (Lolium perenne (LOLPE) [1]): 80%
pest or weed control at 250 g/ha [2]: 50%
pest or weed control at 250 g/ha [3]: 60%
pest or weed control at 250 g/ha (Avena fatua (AVEFA) [4]): 60%
pest or weed control at 250 g/ha (Lolium perenne (LOLPE) [5]): 100%
pest or weed control at 250 g/ha [6]: 90%
pest or weed control at 250 g/ha [7]: 90%
pest or weed control at 250 g/ha (Avena fatua (AVEFA) [8]): 100%
